The values below come from PMC13071375, “Restriction endonuclease selective inhibition by β-cyclodextrin sulfate” (Bioscience Reports, 2025).

The IC50 is the concentration at which inhibition is half-maximal.

Values joined by “and” are separate entries in the source; they are usually repeats but may differ in a detail not shown here. Equal entries are not always repeated. Structures can show the parent of a compound that is named as a salt. Where two headings read alike, the source gives them in different places.

For test [1], the system named is KpnI. On the set-up: method as in PMID 25581012. The note with it: cited from earlier work.
Test [2] relates to XapI. Also on record: method as in PMID 25581012. Particulars: cited from earlier work.
Test [3] has as its system SacI. Also on record: method as in PMID 25581012. The note with it: cited from earlier work.
In test [4] the target is T1, EcoRI (Escherichia coli, UniProt P00642).
T1 construct: purchased Thermo Fisher Scientific ER0271
T1 sequence (P00642 2-277): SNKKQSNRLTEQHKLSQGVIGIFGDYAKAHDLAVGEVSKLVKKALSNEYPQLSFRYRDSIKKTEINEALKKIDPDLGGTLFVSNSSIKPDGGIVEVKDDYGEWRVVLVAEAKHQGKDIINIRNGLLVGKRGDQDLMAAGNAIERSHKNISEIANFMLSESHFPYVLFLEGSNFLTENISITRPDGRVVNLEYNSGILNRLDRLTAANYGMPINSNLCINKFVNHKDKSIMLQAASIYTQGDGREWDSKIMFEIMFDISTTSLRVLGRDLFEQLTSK
The format is biochemical.
Experimental: (§2) Digestion time course studies were conducted for each RE by incubating 2 μl of NdeI-linearised pBR322 (2.5 ng/μl), 1 μl of RE (1.25 U/μl), 2 μl of appropriate buffer, and 15 μl of molecular biology grade water at 37°C for various times (Supplementary Figure S1). […] These times were used as the digestion time for the RE inhibition assays.
(§3) To determine the effects of β-CDsul treatment on REs, Nl-pBR322 was incubated at 37°C with EcoRI, VspI, or HindIII for the previously determined amount of time.
(§4) β-CDsul and EDTA stock solutions were made in molecular biology grade water, and dilution series were prepared at appropriate concentrations to give the necessary final concentrations of each in the assay mixture. The assay mixture composition was 2 μl of Nl-pBR322 (2.5 ng/μl), 1 μl of RE (1.25 U/μl), 2 μl of appropriate buffer, 1 μl of β-CDsul or EDTA at desired concentration, and 14 μl of molecular biology grade water. As a negative control, 1 μl extra of microbiology grade water was used instead of EDTA or β-CDsul. After the appropriate amount of incubation time at 37°C, the REs were thermally inactivated by incubation at 65°C for 20 min.
Electrophoresis gel solution was prepared using 0.8% (w/v) agarose (Thermo Scientific™ Agarose I (Molecular Biology Grade)) with 1× TBE Buffer (Thermo Scientific™ TBE Buffer (Tris–borate–EDTA) (10×)). The mixture was heated until the agarose was completely dissolved and the solution became clear. Sybr Safe DNA stain (1% (v/v), Invitrogen™ SYBR™ Safe DNA Gel Stain) was added into the agarose solution. The final solution was poured into the gel tray and cooled down to room temperature (25°C). Ten microliters of samples from digestion experiments was mixed well with 1 μl of 500× diluted SYBR Safe Gel Stain (ThermoFisher Scientific™ Invitrogen, catalogue number S33102) and 1 μl of 5× diluted FlashGel Loading Dye (Lonza Bioscience, catalogue number 50462) and then loaded into wells. A FlashGel™ Dock system was used for electrophoresis with a voltage of 0–300 VDC, power of 15 W, and current of 50 mA.
(§5) Gel images were captured using a UV-transilluminator capturing system (Syngene™ Ingenius 3 Manual Gel Documentation System) with the following parameters: resolution: 3.0 MP, bit depth: 12/16 bit, and wavelength: 302 nm. The images were analysed using GelAnalyzer [19] software by calculating the normalised intensities of fragment bands.

In test [5] the target is T2, HindIII (Haemophilus influenzae, UniProt P43870). Briefly: biochemical. Particulars: Nl-pBR322 substrate, 40 min digestion at 37°C, Buffer R.
T2 sequence (P43870 whole entry): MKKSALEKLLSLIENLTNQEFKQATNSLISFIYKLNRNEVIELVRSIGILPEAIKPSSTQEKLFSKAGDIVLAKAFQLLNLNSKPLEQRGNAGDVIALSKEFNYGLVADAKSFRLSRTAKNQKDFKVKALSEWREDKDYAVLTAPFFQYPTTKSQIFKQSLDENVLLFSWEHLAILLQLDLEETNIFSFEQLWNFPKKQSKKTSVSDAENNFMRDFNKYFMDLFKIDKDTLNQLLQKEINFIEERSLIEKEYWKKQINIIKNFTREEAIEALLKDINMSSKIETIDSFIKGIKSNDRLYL
Experimental: as §2, §3, §4
(§6) Electrophoresis gel solution was prepared using 0.8% (w/v) agarose (Thermo Scientific™ Agarose I (Molecular Biology Grade)) with 1× TBE Buffer (Thermo Scientific™ TBE Buffer (Tris–borate–EDTA) (10×)). The mixture was heated until the agarose was completely dissolved and the solution became clear. Sybr Safe DNA stain (1% (v/v), Invitrogen™ SYBR™ Safe DNA Gel Stain) was added into the agarose solution. The final solution was poured into the gel tray and cooled down to room temperature (25°C). […]
as §5
Test [6] relates to VspI. The format is biochemical. The note with it: for IC50: Nl-pBR322 substrate, 20 min digestion at 37°C, Buffer O.
Experimental: as §2, §3, §4, §6, §5
The test system of test [7] is REs. Also on record: method as in PMID 25126898. Particulars: cited from earlier work.
Test [8] has as its target T2, HindIII. On the set-up: purchased Thermo Fisher Scientific ER0501; method as in PMID 25126898. The note with it: digestion of λ DNA; cited from earlier work.
For test [9], the system named is EcoRI and VspI. Briefly: Co-digestion assay of Nl-pBR322 with EcoRI and VspI (dual RE system). Format: biochemical. The procedure: (§1) The digestion time was either variable or fixed at 120 min for the variable concentration experiment to achieve full digestion. The composition of the components with the co-digestion assays was more complex than single digestion systems due to the need for simultaneously optimising the activity of each RE in the non-ideal buffer system of the other RE.

Test [10] deals with T3, EcoRI and VspI.
T3 construct: purchased Thermo Fisher Scientific ER0271, ER0911
Described as above. The format is biochemical. The procedure: as §1

Test [11] has as its system Nrul. On the set-up: method as in PMID 25126898. The note with it: digestion of λ DNA; cited from earlier work.
The target in test [12] is T2, HindIII. Particulars: read-out: IC50 HindIII; Nl-pBR322 substrate, 40 min digestion at 37°C, Buffer R.
Experimental: as §2, §3, §4, §6, §5
[13] abbreviates: Nl-pBR322 substrate, 20 min digestion at 37°C, Buffer EcoRI, read-out: IC50 EcoRI.
[14] abbreviates: 10 μM β-CDsul, time course 30–240 min.

With `O=C1N2CN3C(=O)N4CN5C(=O)N6CN7C(=O)N8CN9C(=O)N%10CN%11C(=O)N%12CN%13C(=O)N%14CN1C1C2N2CN%15C(=O)N(CN%16C(=O)N(CN%17C(=O)N(CN%18C(=O)N(CN%19C(=O)N(CN%20C(=O)N(CN1C2=O)C%14C%13%20)C%12C%11%19)C%10C9%18)C8C7%17)C6C5%16)C4C3%15` (stereo not drawn) [CB7], the half-maximal inhibitory concentration (IC50) in [1] (linearised pGL3-Basic DNA) is ~200 µM; in [1] (plasmid pGL3-Basic DNA) it was ~90 µM; in [2] (linearised pGL3-Basic DNA), ~500 µM; in test [2] (plasmid pGL3-Basic DNA) it was ~500 µM; in [3] (linearised pGL3-Basic DNA), ~350 µM; in test [3] (plasmid pGL3-Basic DNA), ~250 µM.

As to `O=C(O)CN(CCN(CC(=O)O)CC(=O)O)CC(=O)O` [EDTA], the IC50 in test [4] (setting [13]) was 18 µM and 17 µM; in test [4] (all three enzymes, Nl-pBR322, read-out: range of IC50 values across EcoRI, HindIII and VspI), 12 to 17 µM; in test [5], 13 µM and 12 µM; in test [6] it was 12 µM.

Take `OC[C@H]1O[C@@H]2O[C@H]3[C@H](O)[C@@H](O)[C@@H](O[C@H]4[C@H](O)[C@@H](O)[C@@H](O[C@H]5[C@H](O)[C@@H](O)[C@@H](O[C@H]6[C@H](O)[C@@H](O)[C@@H](O[C@H]7[C@H](O)[C@@H](O)[C@@H](O[C@H]8[C@H](O)[C@@H](O)[C@@H](O[C@H]1[C@H](O)[C@H]2O)O[C@@H]8CO)O[C@@H]7CO)O[C@@H]6CO)O[C@@H]5CO)O[C@@H]4CO)O[C@@H]3CO` [β-CD]: the “inhibition of REs” value in test [7] is listed as “no inhibition was observed”.

For `O=S(=O)(O)OCC1OC2OC3C(COS(=O)(=O)O)OC(OC4C(COS(=O)(=O)O)OC(OC5C(COS(=O)(=O)O)OC(OC6C(COS(=O)(=O)O)OC(OC7C(COS(=O)(=O)O)OC(OC8C(COS(=O)(=O)O)OC(OC1C(OS(=O)(=O)O)C2OS(=O)(=O)O)C(OS(=O)(=O)O)C8OS(=O)(=O)O)C(OS(=O)(=O)O)C7OS(=O)(=O)O)C(OS(=O)(=O)O)C6OS(=O)(=O)O)C(OS(=O)(=O)O)C5OS(=O)(=O)O)C(OS(=O)(=O)O)C4OS(=O)(=O)O)C(OS(=O)(=O)O)C3OS(=O)(=O)O` (stereo not drawn) [β-CDsul, β-cyclodextrin sulfate], in test [4] (EcoRI vs HindIII or VspI), the “fold difference in IC50 values, EcoRI vs HindIII or VspI” value is 13- to 27 fold. Further, the half-inhibitory concentration (IC50) in test [4] (setting [13]) was 5 µM; in [8], 6 µM; in test [11], 3 µM; in test [12] it was 65 µM; in [6], 133 µM. Further, the “fold more potent at inhibiting EcoRI compared with HindIII” value in [4] (ratio of IC50s, EcoRI vs HindIII) is 13 fold. For the same compound, the “fold more potent at inhibiting EcoRI compared with VspI” value in test [4] (ratio of IC50s, EcoRI vs VspI) is on record as “about 27 fold”. For the same compound, the “time of maximum concentration of fragment A in EcoRI/VspI co-digestion” value in [9] (setting [14]) came to 60 min. In addition, in test [9] (Five hundred micromolar β-CDsul, 120 min), the “digestion in EcoRI/VspI co-digestion” value is listed as “no digestion by either RE”. Moreover, the “decrease of fragment A concentration (EcoRI action) in EcoRI/VspI co-digestion” value in test [10] (setting [14]) was “does not decrease until 240 min”. Further, in [10] (between 5 and 10 μM β-CDsul, 120 min, still no Nl-pBR322, VspI less affected), the “EcoRI inhibition in EcoRI/VspI co-digestion (fragment A concentration)” value is given as “significant increase in EcoRI inhibition”. In addition, in [6] (VspI vs HindIII), the “fold difference in IC50 against VspI and HindIII” value is on record as “two-fold”.
